Results as given in PubChem BioAssay AID1963869 (Molecular Pharmacology Branch, DTP, NCI, 2024).

System: KRAS patient-derived spheroids with HUVEC/MSC, viability
Test: Anticancer human tumor 323965-272-R-J2-PDC patient-derived pancreatic carcinoma cell line growth inhibition [KRAS2]
Settings: second compound 0.1 µM; first compound 1 µM; active compounds read low
Text: Multicellular complex tumor spheroid response to RAS pathway inhibitors in combination with a targeted agents in patient-derived cell lines with oncogenic KRAS variants from multiple cancer types
A high-throughput screen of multi-cell type tumor spheroids was designed to identify active combinations of targeted small molecules and KRAS pathway inhibitors. Complex spheroids include a stromal component modeled by human endothelial cells (HUVEC) and fibroblasts modeled by human mesenchymal stem cells (MSCs). The concentration ranges selected for each drug and investigational agent were based upon clinically achievable concentrations if the clinical Cmax of the agent was known.
Compounds. The drugs and investigational agents: BI-3406 (NSC825286), BAY-293 (NSC824723), batoprotafib (TNO155; NSC825523), sotorasib (AMG 510; NSC818433), MRTX1257 (NSC819558), elimusertib (BAY 1895344; NSC800525), molibresib (GSK525762; NSC774829), temuterkib (LY3214996; NSC803410), venetoclax (NSC766270), alisertib (NSC759677), olaparib (NSC753686), talazoparib (NSC767125), erdafitinib (NSC781556), ipatasertib (NSC767898), cabozantinib (NSC761068), nintedanib (NSC756659), abemaciclib (NSC768073), docetaxel (NSC628503), trametinib (NSC758246), and sapanisertib (NSC764658) were obtained from the National Cancer Institute (NCI) Developmental Therapeutics Program Chemical Repository. The FDA-approved anticancer drug set is available from the Developmental Therapeutics Program. […] The stock solutions were prepared in dimethyl sulfoxide (DMSO, Sigma-Aldrich, St. Louis, MO, cat. D2650) at 800-fold the tested concentration and stored at -70 degrees C prior to their use. All drugs and investigational agents were tested over a range starting from a high concentration at or near the clinical Cmax and decreasing in half-log increments. If the clinical Cmax for an agent had not been determined, the highest concentration tested was 10 microM.
Cell Culture. All cells were maintained in an incubator at 37 degrees C and 5% CO2 with 95% humidity. The PDC lines were cultured according to standard operating procedures established by the NCI PDMR (https://pdmr.cancer.gov/sops/default.htm). Briefly, all PDCs were thawed and cultured in Matrigel-coated flasks prepared with a working solution of 1X Ham's F-12 nutrient mix, without supplementation (Invitrogen, Waltham, MA, cat. 11765054), 100 U/mL penicillin-streptomycin (Invitrogen, cat. 15140122), and 2.5% Matrigel (Corning Inc., Corning, NY, cat. 354248) for the first three passages. All PDCs were cultured in complete DMEM/F-12 media containing advanced DMEM/F-12 (Invitrogen, cat. 12634028), 4.9% defined fetal bovine serum, heat inactivated (HyClone Laboratories Inc., Logan, UT, cat. SH30070.03HI), 389 ng/mL hydrocortisone (Sigma-Aldrich, cat. H4001), 9.7 ng/mL human EGF recombinant protein (Invitrogen, cat. PHG0313), 23.4 microg/mL adenine (Sigma-Aldrich, cat. A2786), 97.3 U/mL penicillin-streptomycin (Invitrogen, cat. 15140122), 1.9 mM L-glutamine (Invitrogen, cat. 25030081), and 9.7 microM Y-27632 dihydrochloride (Tocris Bioscience, Bristol, United Kingdom, cat. 1254). The PDCs were cultured in complete DMEM/F12 media without 9.7 microM Y-27632 dihydrochloride for at least two passages prior to the screen. The established cell line HOP-62 was cultured in RPMI 1640 medium, HEPES (Invitrogen, cat. 22400105) with 10% defined fetal bovine serum (HyClone Laboratories Inc., cat. SH30070.03) and 2 mM L-glutamine (Invitrogen, cat. 25030081). The pooled donor HUVEC were cultured in endothelial cell growth medium 2 (PromoCell, Heidelberg, Germany, cat. C-22011) and the hMSC were cultured in mesenchymal stem cell growth medium 2 (PromoCell, cat. C-28009). For all experiments, HUVEC and hMSC were used at passages </=5, while the malignant cell lines were used at passages </=15. […]
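Further: spheroids exposed to agents for 7 days; 100% = DMSO vehicle control viability.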

In order of rising viability, T/C:
1. CCNC(=O)CC1N=C(c2ccc(Cl)cc2)c2cc(OC)ccc2-n2c(C)nnc21 (configuration not stated) + C=CC(=O)N1CCN(c2nc(=O)n(-c3c(C)ccnc3C(C)C)c3nc(-c4c(O)cccc4F)c(F)cc23)C(C)C1  30.9%
2. Cn1nccc1Nc1nccc(-c2cc3c(s2)C(C)(C)N(CCN2CCOCC2)C3=O)n1 + C=CC(=O)N1CCN(c2nc(=O)n(-c3c(C)ccnc3C(C)C)c3nc(-c4c(O)cccc4F)c(F)cc23)C(C)C1  38.2%

Same assay, conditions: second compound 0.1 µM; first compound 3.16 µM; active compounds read low

In order of falling viability, T/C:
1. Cn1nccc1Nc1nccc(-c2cc3c(s2)C(C)(C)N(CCN2CCOCC2)C3=O)n1 + C=CC(=O)N1CCN(c2nc(=O)n(-c3c(C)ccnc3C(C)C)c3nc(-c4c(O)cccc4F)c(F)cc23)C(C)C1  32.6%
2. CCNC(=O)CC1N=C(c2ccc(Cl)cc2)c2cc(OC)ccc2-n2c(C)nnc21 (configuration not stated) + C=CC(=O)N1CCN(c2nc(=O)n(-c3c(C)ccnc3C(C)C)c3nc(-c4c(O)cccc4F)c(F)cc23)C(C)C1  30%
3. CC1COCCN1c1cc(-c2ccnn2C)c2ccnc(-c3ccn[nH]3)c2n1 (configuration not stated) + C=CC(=O)N1CCN(c2nc(=O)n(-c3c(C)ccnc3C(C)C)c3nc(-c4c(O)cccc4F)c(F)cc23)C(C)C1  11.8%
4. CC1OCC2(CCN(c3cnc(Sc4ccnc(N)c4Cl)c(N)n3)CC2)C1N (configuration not stated) + C=CC(=O)N1CCN(c2nc(=O)n(-c3c(C)ccnc3C(C)C)c3nc(-c4c(O)cccc4F)c(F)cc23)C(C)C1  11.1%

Same assay, conditions: second compound 0.1 µM; first compound 10 µM; active compounds read low

In order of rising viability, T/C:
1. CC1OCC2(CCN(c3cnc(Sc4ccnc(N)c4Cl)c(N)n3)CC2)C1N (configuration not stated) + C=CC(=O)N1CCN(c2nc(=O)n(-c3c(C)ccnc3C(C)C)c3nc(-c4c(O)cccc4F)c(F)cc23)C(C)C1  12%
2. CCNC(=O)CC1N=C(c2ccc(Cl)cc2)c2cc(OC)ccc2-n2c(C)nnc21 (configuration not stated) + C=CC(=O)N1CCN(c2nc(=O)n(-c3c(C)ccnc3C(C)C)c3nc(-c4c(O)cccc4F)c(F)cc23)C(C)C1  25.6%
3. Cn1nccc1Nc1nccc(-c2cc3c(s2)C(C)(C)N(CCN2CCOCC2)C3=O)n1 + C=CC(=O)N1CCN(c2nc(=O)n(-c3c(C)ccnc3C(C)C)c3nc(-c4c(O)cccc4F)c(F)cc23)C(C)C1  36%

Same assay, conditions: second compound 0.316 µM; first compound 0.01 µM; active compounds read low

With `CC1COCCN1c1cc(-c2ccnn2C)c2ccnc(-c3ccn[nH]3)c2n1` (configuration not stated) + C=CC(=O)N1CCN(c2nc(=O)n(-c3c(C)ccnc3C(C)C)c3nc(-c4c(O)cccc4F)c(F)cc23)C(C)C1 the viability, T/C was 44.2%.

Same assay, conditions: second compound 0.316 µM; first compound 0.0316 µM; active compounds read low

In order of falling viability, T/C:
1. CCNC(=O)CC1N=C(c2ccc(Cl)cc2)c2cc(OC)ccc2-n2c(C)nnc21 (configuration not stated) + C=CC(=O)N1CCN(c2nc(=O)n(-c3c(C)ccnc3C(C)C)c3nc(-c4c(O)cccc4F)c(F)cc23)C(C)C1  51.5%
2. Cn1nccc1Nc1nccc(-c2cc3c(s2)C(C)(C)N(CCN2CCOCC2)C3=O)n1 + C=CC(=O)N1CCN(c2nc(=O)n(-c3c(C)ccnc3C(C)C)c3nc(-c4c(O)cccc4F)c(F)cc23)C(C)C1  48.3%
3. CC1OCC2(CCN(c3cnc(Sc4ccnc(N)c4Cl)c(N)n3)CC2)C1N (configuration not stated) + C=CC(=O)N1CCN(c2nc(=O)n(-c3c(C)ccnc3C(C)C)c3nc(-c4c(O)cccc4F)c(F)cc23)C(C)C1  39.1%
4. CC1COCCN1c1cc(-c2ccnn2C)c2ccnc(-c3ccn[nH]3)c2n1 (configuration not stated) + C=CC(=O)N1CCN(c2nc(=O)n(-c3c(C)ccnc3C(C)C)c3nc(-c4c(O)cccc4F)c(F)cc23)C(C)C1  28.8%

Same assay, conditions: second compound 0.316 µM; first compound 0.1 µM; active compounds read low

In order of rising viability, T/C:
1. CC1COCCN1c1cc(-c2ccnn2C)c2ccnc(-c3ccn[nH]3)c2n1 (configuration not stated) + C=CC(=O)N1CCN(c2nc(=O)n(-c3c(C)ccnc3C(C)C)c3nc(-c4c(O)cccc4F)c(F)cc23)C(C)C1  18%
2. CC1OCC2(CCN(c3cnc(Sc4ccnc(N)c4Cl)c(N)n3)CC2)C1N (configuration not stated) + C=CC(=O)N1CCN(c2nc(=O)n(-c3c(C)ccnc3C(C)C)c3nc(-c4c(O)cccc4F)c(F)cc23)C(C)C1  29.8%
3. CCNC(=O)CC1N=C(c2ccc(Cl)cc2)c2cc(OC)ccc2-n2c(C)nnc21 (configuration not stated) + C=CC(=O)N1CCN(c2nc(=O)n(-c3c(C)ccnc3C(C)C)c3nc(-c4c(O)cccc4F)c(F)cc23)C(C)C1  55.5%
